Experiment [1] concerns Smo mediated activation of Hh signaling in NIH3T3 cells. The experiment can be described thus: Inhibition of Hh signaling from allosteric activation of Smo by Oxy133, Q-RT-PCR. It counts as cell-based, mouse. Conditions: 72 h. How it is done:
(§1) Total RNA was extracted with the RNeasy Plus Mini Kit from Qiagen, according to the manufacturer’s instructions. One microgram of RNA was reverse-transcribed using an iScript Reverse Transcription Supermix from Bio-Rad, to make single-stranded cDNA. The cDNAs were then mixed with Qi SYBR Green Supermix (Bio-Rad, Hercules, CA, USA) for quantitative RT-PCR assay using a Bio-Rad I-cycler IQ quantitative thermocycler. All PCR samples were prepared in triplicate wells in a 96-well plate. After 40 cycles of PCR, melt curves were examined in order to ensure primer specificity. Fold changes in gene expression were calculated using the ΔΔCt method. Primers used for mouse were as follows: Oaz1 (5’-CCACTGCTTCGCCAGAGAG-3’) and (5’-CCCGGACCCAGGTTACTA-3’), Gli1 (5’-[…]-3’ and 5’-[…]-3’), Ptch1 (5’-CCATCGGCGACAAGAACC-3’ and 5’-[…]-3’), Hip (5’-[…]-3’ and 5’-[…]-3’), and Abca1 (5’-[…]-3’ and 5’-[…]-3’). […]
(§2) Figure 3 Inhibition of ligand-induced Hedgehog signaling. […] After 72 h, RNA was extracted and analyzed by Q-RT-PCR for the expression of Hh target genes Gli1 (a,b,d) and Ptch1 (c), and normalized to Oaz1 expression. […] Luciferase activity was measured and normalized to the Renilla luciferase activity. […]

Experiment [2] relates to Hh target gene Ptch1 expression in NIH3T3-E1 cells. The experiment can be described thus: Inhibition of CAPAN-1 conditioned medium-induced Ptch1 mRNA expression, Q-RT-PCR. The class given is cell-based, mouse. Conditions: CAPAN-1 CM, 72 h.
Excerpt: NIH3T3-E1 fibroblasts were obtained from ATCC (Manassas, VA) and cultured, as previously described. CAPAN-1 and PANC-1 human pancreatic cancer cells were obtained from ATCC and cultured in Dulbecco’s Modified Eagle Medium (DMEM) containing 10% heat-inactivated fetal bovine serum (FBS) (Hyclone Laboratories, Logan, UT, USA) and antibiotics, as previously described. The human lung cancer cell lines A549 and H2030 were obtained from ATCC and cultured in RPMI-1640 containing 10% FBS. The human hepatoma cell line HepG2 was obtained from ATCC and cultured in DMEM containing 10% FBS. […]
Total RNA was extracted with the RNeasy Plus Mini Kit from Qiagen, according to the manufacturer’s instructions. […] The cDNAs were then mixed with Qi SYBR Green Supermix (Bio-Rad, Hercules, CA, USA) for quantitative RT-PCR assay using a Bio-Rad I-cycler IQ quantitative thermocycler. […] Fold changes in gene expression were calculated using the ΔΔCt method. […]
as §2

Experiment [3] concerns 8XGliBS-luciferase reporter responsive to Gli1 in NIH3T3-E1 cells. The experiment can be described thus: CM-induced 8XGliBS-luciferase reporter assay. The class given is cell-based, mouse. The note with it: 72 h treatment. How it is done:
NIH3T3-E1 and Sufu^−/− cells cultured in 24-well plates at 90% confluence were transiently transfected with 0.1 µg of Gli response-element reporter (pGL3b-8xGli-Luciferase) plasmid, and 10 ng of pTK-Renilla-Luciferase plasmid with or without co-transfection with 10 ng of Gli1 overexpression vector, pSRα-Gli1, as previously described using Lipofectamine LTX Plus transfection reagent (Invitrogen). Twenty-four h after transfection, cells were treated with test agents for 72 h. Then the firefly and Renilla luciferase activities were measured using a dual luciferase kit (Promega, Madison, WI, USA) and a GloMax-96 Microplate Luminometer. The firefly luciferase activities were normalized to the Renilla luciferase activities. Data are reported as the mean of triplicate determinations ± SD.
Figure 3 Inhibition of ligand-induced Hedgehog signaling. NIH3T3 cells were pretreated for 2 h with the oxysterols or various inhibitors, as indicated, in DMEM containing 5% FBS. Next, cells were treated with CAPAN-1 conditioned medium (CM) in the absence or presence of oxysterols or inhibitors. After 72 h, RNA was extracted and analyzed by Q-RT-PCR for the expression of Hh target genes Gli1 (a,b,d) and Ptch1 (c), and normalized to Oaz1 expression. […] Luciferase activity was measured and normalized to the Renilla luciferase activity. […]

The test system of experiment [4] is Gli1 expression in PANC-1 cells. Put plainly: Inhibition of baseline Gli1 expression in PANC-1 cells, Q-RT-PCR. The class given is cell-based, human. The note with it: 10 µM, 48 h. The source says: NIH3T3-E1 fibroblasts were obtained from ATCC (Manassas, VA) and cultured, as previously described. CAPAN-1 and PANC-1 human pancreatic cancer cells were obtained from ATCC and cultured in Dulbecco’s Modified Eagle Medium (DMEM) containing 10% heat-inactivated fetal bovine serum (FBS) (Hyclone Laboratories, Logan, UT, USA) and antibiotics, as previously described. The human lung cancer cell lines A549 and H2030 were obtained from ATCC and cultured in RPMI-1640 containing 10% FBS. The human hepatoma cell line HepG2 was obtained from ATCC and cultured in DMEM containing 10% FBS. Mouse embryonic fibroblasts (MEFs) from suppressor of fused (Sufu) null mice (Sufu^−/−) were provided by Dr. Philip Beachy of Stanford University and cultured in DMEM containing 10% FBS. Gant61, SB431542 and vismodegib (GDC0449) were obtained from Cayman Chemical, HPI-1 was obtained from Abcam. For experiments, cells were treated in a medium containing 5% FBS.
Total RNA was extracted with the RNeasy Plus Mini Kit from Qiagen, according to the manufacturer’s instructions. One microgram of RNA was reverse-transcribed using an iScript Reverse Transcription Supermix from Bio-Rad, to make single-stranded cDNA. The cDNAs were then mixed with Qi SYBR Green Supermix (Bio-Rad, Hercules, CA, USA) for quantitative RT-PCR assay using a Bio-Rad I-cycler IQ quantitative thermocycler. All PCR samples were prepared in triplicate wells in a 96-well plate. […] Fold changes in gene expression were calculated using the ΔΔCt method. […]
Figure 4 Inhibition of Gli and Shh expression in (a) PDAC (PANC-1) and (b,c) human lung cancer cells (A549 and H2030, respectively) by Oxy186. Cells were treated with the compounds as indicated in DMEM or RPMI 1640 containing 5% FBS for (a) 48 or (b,c) 72 hours, then RNA was extracted and analyzed by Q-RT-PCR for the expression of Gli1 and normalized to GAPDH expression. (d) CAPAN-1 cells were treated with the compounds, as indicated, in DMEM containing 5% FBS for 72 h, then RNA was extracted and analyzed by Q-RT-PCR for the expression of Shh and normalized to GAPDH expression. […]

Experiment [5] concerns Hh target genes, Gli1 and Ptch1. Put plainly: Induction of Hh target genes by oxysterol alone in NIH3T3-E1 cells, Q-RT-PCR. It counts as cell-based, mouse. The note with it: up to 10 µM, no CM. The method, then: as §1, §2
For a further experiment, the system named is LXR target gene Abca1. Put plainly: Induction of LXR target gene Abca1 in NIH3T3 cells, Q-RT-PCR. It counts as cell-based, mouse. How it is done:
Total RNA was extracted with the RNeasy Plus Mini Kit from Qiagen, according to the manufacturer’s instructions. One microgram of RNA was reverse-transcribed using an iScript Reverse Transcription Supermix from Bio-Rad, to make single-stranded cDNA. The cDNAs were then mixed with Qi SYBR Green Supermix (Bio-Rad, Hercules, CA, USA) for quantitative RT-PCR assay using a Bio-Rad I-cycler IQ quantitative thermocycler. All PCR samples were prepared in triplicate wells in a 96-well plate. After 40 cycles of PCR, melt curves were examined in order to ensure primer specificity. Fold changes in gene expression were calculated using the ΔΔCt method. Primers used for mouse were as follows: Oaz1 (5’-CCACTGCTTCGCCAGAGAG-3’) and (5’-CCCGGACCCAGGTTACTA-3’), Gli1 (5’-[…]-3’ and 5’-[…]-3’), Ptch1 (5’-CCATCGGCGACAAGAACC-3’ and 5’-[…]-3’), Hip (5’-[…]-3’ and 5’-[…]-3’), and Abca1 (5’-[…]-3’ and 5’-[…]-3’). Primers used for human were as follows: SREBP1c (5’-CGCTCCTCCATCAATGACA-3’ and 5’-[…]-3’), GAPDH (5’-[…]-3’ and 5’-[…]-3’), SHH (5’-CGGAGCGAGGAAGGGAAAG-3’) and (5’-[…]-3’), and GLI1 (5’-GAAGCCGAGCCGAGTATC-3’ and 5’-[…]-3’).
Figure 7 Induction of LXR target gene expression by Oxy186 and LXR agonist TO901317 (TO). (a) NIH3T3 cells and (b) HepG2 cells were treated with DMEM containing 5% FBS in the presence or absence of TO (2 µM) or Oxy186 (10 µM). […] Data from a representative experiment are reported as the mean of triplicate determinations ± SD (** p < 0.01 vs. control).

For `C[C@]12CC[C@H](O)C[C@@H]1CC[C@@H]1[C@@H]2CC[C@@]2(C)[C@H]1CC[C@@H]2[C@](C)(O)CCc1ccc(F)cc1` [Oxy186, (3S,5S,8R,9S,10S,13S,14S,17S)-17-((R)-4-(4-fluorophenyl)-2-hydroxybutan-2-yl)-10,13-dimethylhexadecahydro-1H-cyclopenta[a]phenanthren-3-ol], the “Suppression of Hh signaling from allosteric activation of Smo by Oxy133” value in experiment [1] is reported as “significantly suppressed”. For the same compound, the “Inhibition of ligand-induced Ptch1 mRNA expression” value in experiment [2] is recorded as “robustly inhibited”. For the same compound, in experiment [3], the “Inhibition of CM-induced 8XGliBS-luciferase reporter activity” value is “significantly inhibited”. Besides, the “Inhibition of high baseline expression of Gli1” value in experiment [4] is “significantly inhibited”. In experiment [5], the “Induction of Hh target genes Gli1 and Ptch1” value is given as “not”. In addition, the “LXR agonism (Figure 8b summary)” value in the experiment on LXR target gene Abca1 (Figure 8b drug-like properties summary) was “Weak LXR agonist”. In addition, the “Induction of expression of LXR target gene Abca1” value with LXR target gene Abca1 (NIH3T3-E1 cells, up to 10 µM) is recorded as “only modestly induced”.
